The source of these data is ChEMBL document CHEMBL1146830, “Synthesis and biological evaluation of nonpeptide integrin antagonists containing spirocyclic scaffolds” (Bioorg Med Chem Lett, 2004).

Where only a bound is given, the exact number is not on record here.

In assay [1] the target is Integrin alpha-V/beta-3 (Homo sapiens). Briefly: Evaluated in an functional alpha-v beta-3 antagonism assay, involving adhesion of beta-3-transfected 293 cells to fibrinogen (alpha-v beta-3 293 beta3).
In assay [2] the target is Integrin alpha-V/beta-3 and alpha-IIb/beta 3 (Homo sapiens, UniProt P05106+P06756+P08514). As to the kind of experiment: Inhibition of platelet aggregation in human platelet-rich plasma alpha IIb beta-3 integrin to assess the selectivity for the alpha-v beta-3 over the GPIIb/IIIa integrin receptor.
A further assay has as its target Integrin alpha-5/beta-1 (Homo sapiens, UniProt P05556+P08648). Briefly: Alpha-5 beta-1 antagonism using an ELISA assay. In kind it is functional.

Sequence of Integrin alpha-5/beta-1 (P05556 21-798 limits assumed): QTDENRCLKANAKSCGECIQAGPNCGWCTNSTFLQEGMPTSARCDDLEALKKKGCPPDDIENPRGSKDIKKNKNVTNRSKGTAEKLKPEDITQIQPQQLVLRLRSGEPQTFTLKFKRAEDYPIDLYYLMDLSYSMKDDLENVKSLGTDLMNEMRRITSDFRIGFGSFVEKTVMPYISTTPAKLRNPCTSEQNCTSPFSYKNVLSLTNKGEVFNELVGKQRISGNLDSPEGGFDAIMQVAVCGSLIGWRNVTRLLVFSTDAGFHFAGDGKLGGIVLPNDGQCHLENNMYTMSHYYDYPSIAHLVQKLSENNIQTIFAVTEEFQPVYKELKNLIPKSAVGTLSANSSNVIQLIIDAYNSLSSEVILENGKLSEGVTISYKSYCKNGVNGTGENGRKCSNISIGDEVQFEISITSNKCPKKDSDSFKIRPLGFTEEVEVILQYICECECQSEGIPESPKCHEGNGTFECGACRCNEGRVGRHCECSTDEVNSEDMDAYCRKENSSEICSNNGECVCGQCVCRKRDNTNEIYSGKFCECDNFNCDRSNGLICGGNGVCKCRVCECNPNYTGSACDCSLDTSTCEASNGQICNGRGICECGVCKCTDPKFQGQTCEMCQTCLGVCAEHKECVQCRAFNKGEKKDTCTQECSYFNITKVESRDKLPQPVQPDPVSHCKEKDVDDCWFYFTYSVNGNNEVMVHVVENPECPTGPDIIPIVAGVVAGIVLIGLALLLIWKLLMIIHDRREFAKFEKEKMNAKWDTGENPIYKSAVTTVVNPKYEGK
Sequence of Integrin alpha-5/beta-1 (P08648 42-894 limits assumed): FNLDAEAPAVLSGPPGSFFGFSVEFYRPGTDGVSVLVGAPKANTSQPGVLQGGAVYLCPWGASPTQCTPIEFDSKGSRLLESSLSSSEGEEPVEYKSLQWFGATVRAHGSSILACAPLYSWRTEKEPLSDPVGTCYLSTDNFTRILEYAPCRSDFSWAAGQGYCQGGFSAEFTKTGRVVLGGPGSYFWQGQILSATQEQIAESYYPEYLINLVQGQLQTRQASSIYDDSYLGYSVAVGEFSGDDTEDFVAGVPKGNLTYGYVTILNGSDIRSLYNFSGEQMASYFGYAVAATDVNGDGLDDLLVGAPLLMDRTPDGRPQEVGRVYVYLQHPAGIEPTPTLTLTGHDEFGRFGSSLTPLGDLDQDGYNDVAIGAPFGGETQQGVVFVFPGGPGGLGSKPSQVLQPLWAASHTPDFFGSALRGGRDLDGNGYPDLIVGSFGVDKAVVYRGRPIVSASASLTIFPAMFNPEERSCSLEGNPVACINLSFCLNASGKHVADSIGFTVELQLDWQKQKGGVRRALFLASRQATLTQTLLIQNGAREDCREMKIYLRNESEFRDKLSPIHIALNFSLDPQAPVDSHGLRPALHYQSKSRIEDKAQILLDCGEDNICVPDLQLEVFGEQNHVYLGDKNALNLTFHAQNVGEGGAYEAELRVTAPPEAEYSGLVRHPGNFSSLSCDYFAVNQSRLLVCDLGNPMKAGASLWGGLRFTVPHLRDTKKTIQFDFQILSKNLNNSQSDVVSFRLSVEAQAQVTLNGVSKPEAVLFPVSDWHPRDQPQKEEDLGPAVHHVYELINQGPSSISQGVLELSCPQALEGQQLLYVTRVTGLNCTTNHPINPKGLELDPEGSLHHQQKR
Sequence of Integrin alpha-5/beta-1 (P08648 895-1049 limits assumed): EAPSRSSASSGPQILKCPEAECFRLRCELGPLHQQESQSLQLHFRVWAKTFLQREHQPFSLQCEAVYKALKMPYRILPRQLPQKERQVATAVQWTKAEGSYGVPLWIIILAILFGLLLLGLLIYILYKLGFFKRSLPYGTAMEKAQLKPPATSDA

Take `COC(=O)N1C[C@@]2(CC(C(=O)NC[C@H](NS(=O)(=O)c3c(C)cc(C)cc3C)C(=O)O)=NO2)C[C@H]1CNc1nc2ccccc2[nH]1`: the IC50 was 34 nM in assay [1], greater than 100000 nM in assay [2] and 1.4 nM on Integrin alpha-5/beta-1.

On to `Cc1cc(C)c(S(=O)(=O)N[C@@H](CNC(=O)C2=NO[C@@]3(C2)C[C@@H](CNC2=NCCN2)N(C(=O)OCc2ccccc2)C3)C(=O)O)c(C)c1`, for which the IC50 in assay [2] was determined as 9200 nM; at Integrin alpha-5/beta-1, 1200 nM.

For `COC(=O)N1C[C@@]2(CC(C(=O)NC[C@H](NS(=O)(=O)c3c(C)cc(C)cc3C)C(=O)O)=NO2)C[C@H]1CNc1ncc[nH]1`, the values for the half-maximal inhibitory concentration (IC50) (in assay [1]; in assay [2]; against Integrin alpha-5/beta-1) were 57 nM, 7300 nM and 21 nM, respectively.

Consider `Cc1cc(C)c(S(=O)(=O)N[C@@H](CNC(=O)C2=NO[C@]3(CN[C@H](CNc4ncc[nH]4)C3)C2)C(=O)O)c(C)c1`, for which the IC50 in assay [1] was determined as 180 nM; in assay [2], 1400 nM; on Integrin alpha-5/beta-1, 230 nM.

Turning to `Cc1cc(C)c(S(=O)(=O)N[C@@H](CNC(=O)C2=NO[C@]3(C2)C[C@@H](CNc2ccccn2)N(C(=O)OCc2ccccc2)C3)C(=O)O)c(C)c1`, the IC50 in assay [1] is 49 nM; in assay [2], greater than 100000 nM; against Integrin alpha-5/beta-1, 0.18 nM.

For the compound `Cc1cc(C)c(S(=O)(=O)N[C@@H](CNC(=O)C2=NO[C@]3(C2)C[C@@H](CNc2ncc[nH]2)N(C(=O)OCc2ccccc2)C3)C(=O)O)c(C)c1`, the results for the IC50 (in assay [1]; in assay [2]; against Integrin alpha-5/beta-1) were 41 nM, 34000 nM and 18 nM, respectively.

Take `Cc1cc(C)c(S(=O)(=O)N[C@@H](CNC(=O)C2=NO[C@]3(C2)C[C@@H](CNc2ncc[nH]2)N(C(=O)OCc2cccnc2)C3)C(=O)O)c(C)c1`: the IC50 in assay [1] is 32 nM; in assay [2], 5600 nM; against Integrin alpha-5/beta-1, 39 nM.

With `CCCCOC(=O)N1C[C@@]2(CC(C(=O)NC[C@H](NS(=O)(=O)c3c(C)cc(C)cc3C)C(=O)O)=NO2)C[C@H]1CNc1ncc[nH]1`, the IC50 in assay [1] is 130 nM; in assay [2] it was 11000 nM; against Integrin alpha-5/beta-1, 14 nM.

Consider `Cc1cc(C)c(S(=O)(=O)N[C@@H](CNC(=O)C2=NO[C@]3(C2)C[C@@H](CNC2=NCCN2)N(C(=O)OCc2ccccc2)C3)C(=O)O)c(C)c1`, for which the results for the IC50 (in assay [2]; on Integrin alpha-5/beta-1) were 7300 nM and 13 nM, respectively.

For `Cc1cc(C)c(S(=O)(=O)N[C@@H](CNC(=O)C2=NO[C@]3(C2)C[C@@H](CNc2nc4ccccc4[nH]2)N(C(=O)OCc2ccccc2)C3)C(=O)O)c(C)c1`, the 50% inhibitory concentration (IC50) in assay [1] is 74 nM; in assay [2], greater than 100000 nM.

`CCCCOC(=O)N1C[C@@]2(CC(C(=O)NC[C@H](NS(=O)(=O)c3c(C)cc(C)cc3C)C(=O)O)=NO2)C[C@H]1CNc1nc2ccccc2[nH]1`: the values for the IC50 (in assay [1]; on Integrin alpha-5/beta-1) were 87 nM and 0.39 nM, respectively.
